Results published in patent publication US20070060558A1 (PALUMED S.A., priority 2004, published 2007).
Converted amounts (≈) assume the structure as drawn. Where two headings read alike, the source gives them in different places. Starred links: 1 amine or outer side, 2 acyl side, 3 side chain; linkers in the order of their positions; H or OH if unused. Positions of bridges follow the written chain, without caps; N, C: chain ends. Non-standard residues stand in square brackets, D forms with d. Residues, ends and D or L forms follow the SMILES beside them. ξ: configuration not given here. *: point of attachment. X1 = O=C1C[C@@H](C(=O)[*:2])N([*:1])C[C@H]1CSCCNc1ccnc2cc(Cl)ccc12; NMePhe(4-NMe2) = CN[C@@H](Cc1ccc(N(C)C)cc1)C(=O)O; Picolinoyl(3-OH) = O=C(c1ncccc1O)*; ξPhg = NC(C(=O)O)c1ccccc1; dAbu = CC[C@@H](N)C(=O)O

Experiments:
[1] = Stability in solution at pH 7 (HPLC purity over time); format: physicochemical; conditions: pH 7, 37° C.
Experimental: (§1) The stability of the aminoquinoline-cephalosporin_hybrid molecules given as examples was determined in solution at 37° C., at physiological pH (pH 7, phosphate buffer/acetonitrile, 75/25 v/v) and at acidic pH (pH 1, 0.1 M HCl/ethanol, 70/30 v/v) by high pressure liquid chromatography coupled to a UV-visible detector (Beckman Coulter ODS C18 column, 5 μm, 4.6×250 mm; eluents: A: 0.1% TFA, B: CH3CN/H2O 90/10 0.1% TFA, gradient: from 10% to 100% of B in 30 minutes, and then 100% of B for 10 minutes, flow rate 1 mL/minutes, λ=254 nm, volume injected: 10 μL).

[2] = Stability in solution at pH 1 (HPLC purity over time); format: physicochemical; conditions: pH 1, 37° C.
Experimental: as §1

[3] = system: Staphylococcus aureus MSSA CIP 4.83; experiment: Antibacterial activity (MIC/MBC); format: cell-based; conditions: S. aureus MSSA CIP 4.83
[4] = system: S. pneumoniae PRSP CIP 104471; experiment: Antibacterial activity (MIC/MBC); format: cell-based, Streptococcus pneumoniae; conditions: Streptococcus pneumoniae; for MIC: read-out: MIC
[5] = system: S. pneumoniae PRSP clinical isolate; experiment: Antibacterial activity (MIC/MBC); format: cell-based, Streptococcus pneumoniae; conditions: Streptococcus pneumoniae; for MIC: PRSP, read-out: MIC
[6] = system: E. faecalis VRE CIP 104676; experiment: Antibacterial activity (MIC/MBC); format: cell-based, Enterococcus faecalis; conditions: Enterococcus faecalis, E. faecalis VRE CIP 104676; for MIC: read-out: MIC
H. influenzae CIP 102514 = experiment: Antibacterial activity (MIC/MBC); format: cell-based, Haemophilus influenzae; conditions: Haemophilus influenzae, CIP102514
[7] = system: S. aureus MRSA clinical isolate; experiment: Antibacterial activity (MIC); format: cell-based, Staphylococcus aureus; conditions: Staphylococcus aureus; S. aureus MRSA clinical isolate; read-out: MIC
[8] = system: S. pneumoniae PSSP CQI 201; experiment: Antibacterial activity (MIC); format: cell-based, Streptococcus pneumoniae; conditions: Streptococcus pneumoniae; S. pneumoniae PSSP CQI 201; read-out: MIC
S. pyogenes CIP 56.41T = experiment: Antibacterial activity (MIC/MBC); format: cell-based, Streptococcus pyogenes; conditions: Streptococcus pyogenes, CIP56; S. pyogenes CIP 56.41T; read-out: MIC
[9] = system: Human lung fibroblast cells (ATCC CCL-171); experiment: Cytotoxicity (MTT) assay; conditions: for % of survival cells compared to the untreated controls: 18 hr treatment
Experimental: Cellular toxicity was measured by a colorimetric assay that makes use of the tetrazolium salt, MTT. Human lung fibroblast cells (ATCC CCL-171) were plated in 96-well plates at 10^4 cells per well and incubated under 5% CO2 at 37° C. for 24 hr to allow adherence of cells to the plate. Test compounds were prepared as a stock solution at 1 mg/mL in 1% DMSO/water and diluted with water for the serial dilutions (500-7.8 μg/mL). Cells underwent a 18 hr treatment under 5% CO2 at 37° C. with experimental drugs. Corresponding controls received either no drug treatment or treatment with SDS (sodium dodecyl sulfate). The optical density of each sample was read on a microplate spectrophotometer reader at 600 nm and cell survival was expressed as a fraction of that of untreated controls. A drug is said cytotoxic when this fraction is ≦−30%

[10] = Staphylococcus aureus, read-out: MBC
[11] = Staphylococcus aureus, read-out: MIC
[12] = H. influenzae CIP 102514, read-out: MIC

Which results are given for CC(=O)OCC1=C(C(=O)O)N2C(=O)[C@@H](NC(=O)CNc3ccnc4cc(Cl)ccc34)[C@H]2SC1.Cl [PA 1089, (6R,7R)-3-Acetoxymethyl-7-[2-(7-chloroquinolin-4-ylamino)-acetylamino]-8-oxo-5-thia-1-aza-bicyclo[4.2.0]oct-2-ene-2-carboxylic acid hydrochloride]?
Purity of the hybrid molecules (as a percentage) as a function of time (hours) ([1]; time 0 h): 100%; Purity of the hybrid molecules (as a percentage) as a function of time (hours) ([1]; time 1 h): 100%; Purity of the hybrid molecules (as a percentage) as a function of time (hours) ([1]; time 2 h): 100%; Purity of the hybrid molecules (as a percentage) as a function of time (hours) ([1]; time 4 h): 100%; Purity of the hybrid molecules (as a percentage) as a function of time (hours) ([1]; time 6 h): 98%; Purity of the hybrid molecules (as a percentage) as a function of time (hours) ([1]; time 8 h): 97%; Purity of the hybrid molecules (as a percentage) as a function of time (hours) ([1]; time 15 h): 92%; Purity of the hybrid molecules (as a percentage) as a function of time (hours) ([1]; time 24 h): 83%; Purity of the hybrid molecules (as a percentage) as a function of time (hours) ([2]; time 0 h): 100%; Purity of the hybrid molecules (as a percentage) as a function of time (hours) ([2]; time 1 h): 96%; Purity of the hybrid molecules (as a percentage) as a function of time (hours) ([2]; time 2 h): 88%; Purity of the hybrid molecules (as a percentage) as a function of time (hours) ([2]; time 4 h): 81%; Purity of the hybrid molecules (as a percentage) as a function of time (hours) ([2]; time 24 h): 24%; MBC [3, 10]: 0.39 µg/mL; MIC [3, 11]: 0.2 µg/mL; MBC [4]: 0.39 µg/mL; MIC [4]: 0.39 µg/mL; MBC [5]: 0.39 µg/mL; MIC [5]: 0.39 µg/mL; MBC [6]: 12.5 µg/mL; MIC [6]: 6.25 µg/mL; MBC (H. influenzae CIP 102514; H. influenzae CIP 102514, read-out: MBC): > 50 µg/mL; MIC (H. influenzae CIP 102514; [12]): 3.12 µg/mL

Which MBC [3, 10] does the source give for CC(=O)OCC1=C(C(=O)O)N2C(=O)[C@@H](NC(=O)CNc3ccnc4cc(Cl)ccc34)[C@H]2[S+]([O-])C1 (stereo partly drawn) [PA 1092, (6R,7R-3-Acetoxymethyl-7-[2-7-chloroquinolin-4-ylamino)acetylamino]-5,8-dioxo-5λ^1-thia-1-aza-bicyclo[4.2.0]oct-2-ene-2-carboxylic acid] here?
The MBC was over 50 µg/mL.

And the MIC [3, 11]?
The MIC was 12.5 µg/mL (≈ 24.7 µM).

And the MBC [4]?
Its MBC is 3.12 µg/mL (≈ 6.15 µM).

And the MIC [4]?
The MIC was 1.56 µg/mL (≈ 3.08 µM).

What about the MBC [5] of the same compound?
Its MBC is 12.5 µg/mL (≈ 24.7 µM).

And the MIC [5]?
Its MIC is 6.25 µg/mL (≈ 12.3 µM).

And the MBC [6]?
The MBC was over 50 µg/mL.

What about the MIC [6] of the same compound?
The MIC was over 50 µg/mL.

What about the MBC (H. influenzae CIP 102514) of the same compound?
Its MBC is 50 µg/mL (≈ 98.6 µM).

What about the MIC (H. influenzae CIP 102514) of the same compound?
Its MIC is 12.5 µg/mL (≈ 24.7 µM).

Which MIC [3, 11] does the source give for O=C(O)CNc1ccnc2cc(Cl)ccc12 [PA 1117, (7-Chloroquinolin-4-ylamino)acetic acid, reference compound] here?
The MIC was over 50 µg/mL.

What about the MIC [4] of the same compound?
The MIC was 50 µg/mL (≈ 211 µM).

And the MIC [5]?
Its MIC is 50 µg/mL (≈ 211 µM).

And the MIC [6]?
The MIC was over 50 µg/mL.

And the MIC (H. influenzae CIP 102514; [12])?
Its MIC is 50 µg/mL (≈ 211 µM).

For CC[C@H]1NC(=O)[C@@H](NC(=O)c2ncccc2O)[C@@H](C)OC(=O)C(c2ccccc2)NC(=O)[C@@H]2CC(=O)[C@H](CSCCNc3ccnc4cc(Cl)ccc34)CN2C(=O)[C@H](Cc2ccc(N(C)C)cc2)N(C)C(=O)[C@@H]2CCCN2C1=O (some centres unmarked) [PA 1182, 5δ-{1-[2-(7-Chloroquinolin-4-ylamino)-ethylamino]-methylsulfanyl}pristinamycin IA] ({Picolinoyl(3-OH)}-T[dAbu]P[NMePhe(4-NMe2)][X1][ξPhg]; ester 1-C), which MIC [3, 11] is on record?
Its MIC is 0.31 µg/mL (≈ 0.277 µM).

And the MIC [7]?
The MIC was 1.25 µg/mL (≈ 1.12 µM).

And the MIC [8]?
The MIC was 0.31 µg/mL (≈ 0.277 µM).

And the MIC (S. pyogenes CIP 56.41T)?
Its MIC is 0.32 µg/mL (≈ 0.286 µM).

Which MBC [3] does the source give for CC1(C)S[C@@H]2[C@H](NC(=O)Cc3ccccc3)C(=O)N2[C@H]1C(=O)O [Penicillin G, reference compound] here?
Its MBC is 0.06 µg/mL (≈ 0.179 µM).

And the MIC [3]?
The MIC was 0.008 µg/mL (≈ 0.0239 µM).

Which “% of survival cells compared to the untreated controls” value (shortened to “% of survival cells”) ([9]; 7.8 μg/mL) does the source give for CCCCCCCCCCCCOS(=O)(=O)[O-].[Na+] [SDS, sodium dodecyl sulfate, reference compound] here?
The value was “+2.1%”.

What about the “% of survival cells” value ([9]; 15.6 μg/mL) of the same compound?
Its value is −7.0%.

What about the “% of survival cells” value ([9]; 31.2 μg/mL) of the same compound?
The value was −16.4%.

And the “% of survival cells” value ([9]; 62.5 μg/mL)?
The value was −77.9%.

And the “% of survival cells” value ([9]; 125 μg/mL)?
The value was −81.2%.

What about the “% of survival cells” value ([9]; 250 μg/mL) of the same compound?
The value was −81.1%.

What about the “% of survival cells” value ([9]; 500 μg/mL) of the same compound?
The value was −83.0%.

And the “concentration at which the threshold of cytotoxicity (−30%) is exceeded” value ([9]; human, 18 hr)?
Its value is at least 31200 ng/mL.

And the “human lung fibroblast cells killed” value ([9]; human, 18 hr)?
Its value is “more than 80%”.
